Laboratory results: US20090134028A1, “Method of Estimating Effect of Test Chemical on Living Organisms” (Chemicals Evaluation and Research Institute, priority 2005, published 2009)
Read-outs that look alike come from different tables or passages of the source.

Key:
[1] = Prediction of liver cell hypertrophy using SVM from post-translational modification data; parameters: species or system rat
[2] = tested on: liver cell; settings: rat, in vivo
[3] = cited from earlier work
[4] = tested on: rat liver protein; assay: Two-dimensional gel electrophoresis of liver proteins after 28-day oral administration: difference of log2(αx/αc) between spots derived from one protein; assay type: in vivo; settings: oral 28 days
Description: 5-Weeks old male rats (F344, SPF strain) obtained from Charles River Laboratories Japan Inc. were divided into groups each consisting of three rats. To the rats of each chemical dosed group was forcibly administered orally a solution obtained by dissolving one of the chemicals shown in Tables 1 to 3, and to the rats of a vehicle control group was forcibly administered orally only a vehicle. The administration was conducted once a day for 28 days. On the 29th day from the start of administration, the liver of each rat was collected. A fragment was cut out from each liver and stored at −20° C. The protein collected from each rat was determined quantitatively by the Bradford method. Then, to the comparative sample collected from the chemical dosed group, the control sample collected from the vehicle control group, and a pool sample (which was a mixture of the comparative sample and the control sample) were added, at 0° C., Cy5, Cy3 and Cy2 (DMF solution, 1 ml) each of 200 pmol per […] of protein, and a labeling reaction was allowed to take place on ice for 30 minutes. After the completion of the reaction, an excessive amount of a Lysine solution (10 mM Lysis buffer solution, 1 ml) was added, followed by storage for 10 minutes to complete the reaction. Further, a x2 sample buffer [8 M urea, 4% (w/v) CHAPS, 20 mg/ml DTT, 2% (v/v) Pharmalytes] of same volume was added, followed by storage on ice for 10 minutes.
Then, the mixture of the resulting samples or each resulting sample was individually subjected to two-dimensional gel electrophoresis.
First-dimensional electrophoresis was conducted in Multiphor II (GE Helthcare Uk Ltd. Buckinghamshire, UK) using IPG (Immobilized pH Gradient) Strips (24 cm, pI3-10L) (GE Helthcare UK Ltd. Buckinghamshire, UK). A sample ([…] of protein) was added from a cup loading holder. Focussing was conducted by 40 kVh in total. After the electrophoresis, equilibration was made for 10 minutes each using a solution A obtained by adding 0.25% (w/v) of DTT to an equilibrating solution (50 mM Tris, pH 8.8, 6 M urea, 30% glycerol, 2% SDS) and a solution B obtained by adding 4.5% (w/v) of iodoacetamide to the equilibrating solution. Successively, second-dimensional electrophoresis was conducted in an Ettan DALT II system (GE Helthcare UK Ltd. Buckinghamshire, UK) using a self-made 12% uniform gel sandwiched between low-fluorescent glasses. Migration was conducted at 3 W (15° C.) overnight.
For each gel after migration, image capture was immediately conducted using Master Imager (GE Helthcare UK Ltd. Buckinghamshire, UK), at a wavelength corresponding to each Cy. The excitation wavelengths of Cy5, Cy3 and Cy2 were set at 625 nm, 480 nm and 425 nm, respectively, and their fluorescence wavelengths were set at 680 nm, 540 nm and 480 nm, respectively.
In the case of the sample obtained by mixing before electrophoresis, the recognition of spots of captured image and the quantitative determination and comparison between Cys in one gel were conducted using Decyder-DIA Soft (GE Helthcare UK Ltd. Buckinghamshire, UK). The matching of spots with the reference map of rat liver protein (2-D data base formed in-house by identifying rat liver 724 spots) was conducted using Decyder-BVA soft (GE Helthcare UK Ltd. Buckinghamshire, UK). When each sample after Cy labeling was independently subjected to electrophoresis, the quantitative determination of each spot and the matching of spots were conducted using PDQuest (Bio-Rad Laboratories, Inc.).
For the spots of the 127 proteins and their modified proteins, there was calculated a base 2 logarithm [log2(αx/αc)] of the ratio (αx/αc) of the expression amount (αx) of the comparative sample and the expression amount (αc) of the control sample. Then, a difference in logarithms was calculated between spots derived from one protein. The calculation of difference in logarithms was made for all combinations of spots derived from one protein. […]

[5] = SVM prediction of liver cell hypertrophy, training set, top-ranked 20 sets of post-translational modification data

Structure (SMILES) | Prediction result [1] | Finding of hepatocyte hypertrpy [2] | pathology of liver cell hypertrophy in the liver [2] | Carcinogenicity ([3]; in vivo) | Prediction result [1, 5] | also measured
ClC(Cl)(Cl)Cl [Carbon tetrachloride] | −1 CORRECT | − | no pathology of liver cell hypertrophy was seen | + |  | 
OC[C@@H](O)[C@@H](O)[C@H](O)[C@H](O)CO [D-mannitol] |  | − | no pathology of liver cell hypertrophy was seen |  | −1 CORRECT | Carcinogenicity ([3]; known carcinogenicity of chemical, Tables 1 to 3): −; Carcinogenicity ([3]; known carcinogenicity of chemical, Tables 8 to 11): −
CCCCC(CC)COC(=O)c1ccccc1C(=O)OCC(CC)CCCC (stereo not drawn) [Di(2-ethylhexyl)phthalate] |  | + | pathology of liver cell hypertrophy was seen | + | −1 (−1 and 1 indicates the incorrectly predicted compounds) | 
CCN(CC)N=O [Diethylnitrosamine] | −1 CORRECT | − | no pathology of liver cell hypertrophy was seen | + |  | 
c1ccoc1 [Furan] | −1 | + | pathology of liver cell hypertrophy was seen | + |  | 
IC(I)I [Iodoform] |  | + |  | − | +1 CORRECT | 
O=NN1CCOCC1 [N-nitrosomorpholine] | −1 CORRECT | − | no pathology of liver cell hypertrophy was seen | + |  | Difference of log2(αx/αc) ([4]; ATP synthase alpha chain, spots 1064-1096, absolute value): 1.824; Difference of log2(αx/αc) ([4]; Carbonate dehydrogenase III, spots 2098-2113, absolute value): 1.038; Difference of log2(αx/αc) ([4]; Cytoskeleton I type keratin-19, spots 1174-1447, absolute value): 1.451; Difference of log2(αx/αc) ([4]; Cytoskeleton II type keratin-8, spots 1068-1481, absolute value): 1.344; Difference of log2(αx/αc) ([4]; Heat shock protein 60 kDa, spots 941-974, absolute value): 1.910; Difference of log2(αx/αc) ([4]; Hydroxyglutaryl-CoA synthase, spots 1215-1216, absolute value): 0.948; Difference of log2(αx/αc) ([4]; MAWD binding protein, spots 2032-2036, absolute value): 1.256; Difference of log2(αx/αc) ([4]; Non-muscle type caldesmon, spots 628-654, absolute value): 1.618; Difference of log2(αx/αc) ([4]; RIKEN cDNA 0610010D20, spots 1708-1753, absolute value): 1.349; Difference of log2(αx/αc) ([4]; Transketorase, spots 789-813, absolute value): 1.074
c1ccc2ncccc2c1 [Quinoline] |  | − | no pathology of liver cell hypertrophy was seen | + | −1 CORRECT | 
C=CCc1ccc2c(c1)OCO2 [Safrole] | +1 CORRECT | + | pathology of liver cell hypertrophy was seen | + |  | 
ClC=C(Cl)Cl [Trichloroethylene] | −1 CORRECT | − | no pathology of liver cell hypertrophy was seen | + |  | 
Cl[C@H]1[C@H](Cl)[C@H](Cl)[C@@H](Cl)[C@H](Cl)[C@H]1Cl [α-Hexachlorocyclohexane] | +1 CORRECT | + | pathology of liver cell hypertrophy was seen | + |  | 
